Consider three compounds from PMC11521914 (Frontiers in Pharmacology, 2024).

Test [1] has as its target T1, Fructose-1,6-bisphosphatase enzyme (FBPase) (Rattus norvegicus, UniProt P19112).
T1 construct: The reaction was started by adding the cytosolic supernatant previously diluted in buffer without substrate; from tissue; host or cells: rat liver, cytosolic supernatant
T1 sequence (P19112 1-363): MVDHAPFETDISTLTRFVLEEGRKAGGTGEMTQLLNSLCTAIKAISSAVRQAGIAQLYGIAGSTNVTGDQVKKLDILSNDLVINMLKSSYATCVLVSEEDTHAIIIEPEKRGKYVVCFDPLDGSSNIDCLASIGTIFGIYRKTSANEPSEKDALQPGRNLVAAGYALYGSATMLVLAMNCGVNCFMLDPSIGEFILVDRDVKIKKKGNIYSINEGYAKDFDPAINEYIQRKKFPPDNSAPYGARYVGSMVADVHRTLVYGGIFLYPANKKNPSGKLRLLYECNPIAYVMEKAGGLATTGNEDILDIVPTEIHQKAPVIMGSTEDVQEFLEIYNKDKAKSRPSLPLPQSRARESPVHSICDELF
As to the kind of experiment: Fructose-1,6-bisphosphatase (FBPase) enzyme activity inhibition assay. Conditions: rat liver cytosolic supernatant, 0.1 mM FBP. The test is classed as biochemical. Here is the method: Livers were removed from 18-h fasted healthy rats (3), which were previously anesthetized with 5% isoflurane ([Unit for Laboratory Animal Medicine, 2023]). Then, they were homogenized in buffer (250 mM sucrose, 1 mM EDTA, 5 mM HEPES, pH 7.4), filtered, and subsequently subjected to differential centrifugation as described by [Andrade-Cetto and Cárdenas-Vázquez (2010)]. Both the microsome-enriched supernatant (containing the enzyme complex glucose-6-phosphatase) and the cytosolic supernatant (containing the enzyme fructose-1,6-bisphosphatase) were collected and stored at −40°C until use.
Colorimetric assays were performed to detect the formation of a phosphomolybdate-malachite green complex with the inorganic phosphate released by the enzyme FBPase. […]
The assays were carried out with substrate-enriched buffer (5 µM EDTA, 5 mM MgCl2, 50 mM Tris-HCl, 0.1 mM FBP, pH 7.2) to which the inhibitors were added at different concentrations (AMP, EtOH-WCg, or junceic acid). […] Finally, the absorbance was measured at 630 nm.
(§1) Finally, for in vitro experiments, absorbance values were transformed into activity percentages following the next formula: Enzyme activity %=AS−ASB/AC−ACB×100
(§2) Where A S is the absorbance of the inhibitor sample at a specific concentration, A SB is the blank of the inhibitor sample, A C is the highest absorbance (without inhibitor), and A CB is the blank of the highest absorbance. […]

The target in test [2] is Protein tyrosine phosphatase 1B (PTP-1B). As to the kind of experiment: Protein tyrosine phosphatase 1B (PTP-1B) enzyme activity inhibition assay. Conditions: rat liver supernatant, 10 mM pNPP. The test is classed as biochemical. As to the method:
One day before the isolation of the enzyme-containing subcellular fraction, lysis buffer was prepared (50 mM HEPES, 0.1 mM EGTA, 0.1 mM EDTA, 120 mM NaCl, 0.5% NP-40, pH 7.5) and enriched with one protease inhibitor cocktail tablet per 10 mL of buffer. The liver from an overnight-fasted healthy rat, previously anesthetized with isoflurane, was removed. The organ was then homogenized in lysis buffer as described by [Li et al. (2010)]. The homogenate was filtered and subsequently centrifuged at 14,000 g for 15 min at 4°C. Supernatants were collected and stored at −40°C until use.
Colorimetric assays were carried out to detect the dephosphorylation of pNPP, which is proportional to the activity of the PTP-1B enzyme. Three independent assays were performed in triplicate following the protocols proposed by [Guo et al. (2015)] and [Song et al. (2017)] with slight modifications. […] Finally, the absorbance was measured at 405 nm.
as §1, §2

Test [3] relates to STZ-NA-hyperglycemic rats. Nature of the test: Pyruvate tolerance tests (inhibition of hepatic glucose production). Conditions: rats fasted 18 h, pyruvate 2 g/kg i.p.; metformin 500 mg/kg b.w. oral. It is filed as in vivo, Wistar rats.
Protocol: Treatment administration (vehicle and samples) was performed orally with the help of an esophageal cannula. Blood samples were obtained from the tail vein and glucose measurements were performed in duplicate using Accu-Chek® Active glucometers.
In summary hyperglycemia was induced as described by [Masiello et al. (1998)], rats fasted for 12 h were administered intraperitoneally with 150 mg/kg b. w. of NA and, 15 min later, 65 mg/kg b. w. of STZ was injected intravenously. After 2 weeks, animals with blood glucose values above 180 mg/dL were selected to perform the tests described below.
After basal glucose measurement, animals received their corresponding treatment. Fifteen minutes later, rats were injected intraperitoneally with a pyruvate solution (2 g/kg b. w.). In total, 30 rats were divided into five groups (n = 6 each group): 1. Normoglycemic Control + pyruvate (NP), receiving physiological solution; 2. Hyperglycemic Control + pyruvate (HP), which was administered with physiological solution; 3. […] (HMP); 4. Hyperglycemic Group + pyruvate + EtOH-WCg, administered with 30 mg/kg b. w. (HCgP); and 5. […] (HJaP). After intraperitoneal injection, glucose levels were measured every 30 min for 2 h ([Mata-Torres et al., 2020]).

Sequence of Protein tyrosine phosphatase 1B (PTP-1B) (P20417 whole entry): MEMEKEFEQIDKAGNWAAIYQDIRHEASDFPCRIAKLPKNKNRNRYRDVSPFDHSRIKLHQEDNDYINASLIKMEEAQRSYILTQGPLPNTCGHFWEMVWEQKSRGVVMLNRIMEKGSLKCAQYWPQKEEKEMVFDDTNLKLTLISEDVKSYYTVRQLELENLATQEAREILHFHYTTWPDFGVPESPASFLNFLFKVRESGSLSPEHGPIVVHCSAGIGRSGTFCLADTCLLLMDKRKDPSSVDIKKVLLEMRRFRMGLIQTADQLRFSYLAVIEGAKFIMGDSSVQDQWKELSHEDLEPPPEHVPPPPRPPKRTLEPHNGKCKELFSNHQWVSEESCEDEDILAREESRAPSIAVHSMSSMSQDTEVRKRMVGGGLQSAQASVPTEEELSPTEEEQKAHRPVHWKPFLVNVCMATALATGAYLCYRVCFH

One may read the IC50 as the concentration at which inhibition is half-maximal. In test [1], `Nc1ncnc2c1ncn2[C@@H]1O[C@H](COP(=O)(O)O)[C@@H](O)[C@H]1O.O` [AMP, adenosine 5′-monophosphate monohydrate] had an IC50 of 95 µM and an Inhibition % of 96%.

For the compound `[Na+].[Na+].[Na+].[O]=[V]([O-])([O-])[O-]` [Na3VO4], in test [2], the “IC50 ± SEM” value stood at 43.2 ± 1.5 µg/mL and the Inhibition % stood at 97%.

Take `CN(C)C(=N)N=C(N)N` [metformin]: the “effect on the hyperglycemic peak 30 min after pyruvate injection” value in test [3] was “completely inhibited the hyperglycemic peak”.
